These results are taken from patent US10144746B2 (GLOBAL BLOOD THERAPEUTICS, INC., priority 2015, dated 2018).

The target of the experiment is Human plasma kallikrein (Homo sapiens (Human), UniProt P03952). The experiment can be described thus: In vitro plasma kallikrein inhibition assay (chromogenic substrate D-Pro-Phe-Arg-pNa, absorbance at 405 nm, IC50 determination). Type of experiment: biochemical. Conditions: for IC50: read-out: KLKB1 pIC50 (converted).
Human plasma kallikrein, sequence (P03952 391-638): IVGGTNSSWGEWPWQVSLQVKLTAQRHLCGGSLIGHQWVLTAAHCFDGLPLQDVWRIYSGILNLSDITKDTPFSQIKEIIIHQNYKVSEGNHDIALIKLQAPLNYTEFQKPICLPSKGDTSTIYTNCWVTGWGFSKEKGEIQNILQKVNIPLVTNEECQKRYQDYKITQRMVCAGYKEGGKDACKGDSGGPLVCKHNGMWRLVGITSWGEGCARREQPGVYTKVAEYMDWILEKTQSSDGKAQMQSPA
Human plasma kallikrein, sequence (P03952 20-390 partner): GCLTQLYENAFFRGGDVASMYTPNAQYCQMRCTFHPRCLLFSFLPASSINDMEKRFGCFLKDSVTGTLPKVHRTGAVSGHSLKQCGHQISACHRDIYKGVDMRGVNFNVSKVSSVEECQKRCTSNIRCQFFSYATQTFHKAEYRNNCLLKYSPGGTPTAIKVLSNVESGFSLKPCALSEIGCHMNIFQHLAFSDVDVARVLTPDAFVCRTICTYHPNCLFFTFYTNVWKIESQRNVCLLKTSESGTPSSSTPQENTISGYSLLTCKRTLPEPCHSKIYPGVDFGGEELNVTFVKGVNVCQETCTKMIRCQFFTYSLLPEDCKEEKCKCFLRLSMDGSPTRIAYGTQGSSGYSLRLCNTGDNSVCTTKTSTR

For the molecule `N=C(N)c1ccc(CNC(=O)c2ccc3c(c2)C2OC3c3ccc(-c4ccc(F)cc4F)cc32)cc1F` (racemic) [Example 198, (±)-N-[(4-carbamimidoyl-3-fluorophenyl)methyl]-12-(2,4-difluorophenyl)-15-oxatetracyclo-[6.6.1.0^2,^7.0^9,1^4]pentadeca-2,4,6,9,11,13-hexaene-4-carboxamide], the IC50 is 20.9 nM.

With `CC(=O)N1C2c3ccc(C(=O)NCc4c(C)cc(N)nc4C)cc3C1c1cc(-c3ccc(F)cc3F)ccc12` (racemic) [Example 209, (±)-15-acetyl-N-[(6-amino-2,4-dimethylpyridin-3-yl)methyl]-12-(2,4-difluorophenyl)-15-azatetracyclo[6.6.1.0^2,^7.0^9,1^4] pentadeca-2,4,6,9,11,13-hexaene-4-carboxamide and (±)-15-acetyl-N-[(6-amino-2,4-dimethylpyridin-3-yl)methyl]-11-(2,4-difluorophenyl)-15-azatetracyclo[6.6.1.0^2,^7.0^9,1^4] pentadeca-2,4,6,9,11,13-hexaene-4-carboxamide], the IC50 was 3470 nM.

In the case of `CCc1cc2c(cc1CC)C1OC2c2ccc(C(=O)NCc3c(C)cc(N)nc3C)cc21` (racemic) [Example 303, (±)-N-[(6-amino-2,4-dimethyl-pyridin-3-yl)methyl]-11,12-diethyl-15-oxatetracyclo [6.6.1.0^2,^7.0^9,1^4]pentadeca-2,4,6,9(14),10,12-hexaene-4-carboxamide], the IC50 was 209 nM.

On to `Cc1cc2c(cc1C)C1OC2c2ccc(C(=O)NCc3c(C)cc(N)nc3C)cc21` (racemic) [Example 308, (±)-N-[(6-amino-2,4-dimethyl-pyridin-3-yl)methyl]-11,12-dimethyl-15-oxatetracyclo [6.6.1.0^2,^7.0^9,1^4]pentadeca-2,4,6,9(14),10,12-hexaene-4-carboxamide], for which the IC50 was 224 nM.

With `Cc1cc(N)nc(C)c1CNC(=O)c1ccc2c(c1)C1OC2c2cc(C3CC3)c(C3CC3)cc21` (racemic) [Example 311, (±)-N-[(6-amino-2,4-dimethyl-pyridin-3-yl)-methyl]-11,12-dicyclopropyl-15-oxatetracyclo [6.6.1.0^2,^7.0^9,1^4]pentadeca-2,4,6,9,11,13-hexaene-4-carboxamide], the IC50 is 32.4 nM.

As for `Cc1cc(N)nc(C)c1CNC(=O)c1ccc2c(c1)C1OC2c2cc(-c3ccccc3)c(-c3ccccc3)cc21` (racemic) [Example 314, (±)-N-[(6-amino-2,4-dimethyl-pyridin-3-yl)-methyl]-11,12-diphenyl-15-oxatetracyclo-[6.6.1.0^2,^7.0^9,1^4]pentadeca-2,4,6,9,11,13-hexaene-4-carboxamide], the IC50 is 871 nM.

Turning to `CCc1cc2c(cc1CC)C1OC2c2ccc(C(=O)NCc3ccc(C(=N)N)cc3)cc21` (racemic) [Example 315, (±)-N-[(4-carbamimidoylphenyl)methyl]-11,12-diethyl-15-oxatetracyclo[6.6.1.0^2,^7.0^9,1^4]-pentadeca-2,4,6,9(14),10,12-hexaene-4-carboxamide], the IC50 was 1.82 nM.

For `N=C(N)c1ccc(CNC(=O)c2ccc3c(c2)C2OC3c3cc(C4CC4)c(C4CC4)cc32)cc1` (racemic) [Example 316, (±)-N-[(4-carbamimidoyl-phenyl)methyl]-11,12-dicyclopropyl-15-oxatetracyclo [6.6.1.0^2,^7.0^9,1^4]-pentadeca-2,4,6,9,11,13-hexaene-4-carboxamide], the IC50 was 4.9 nM.

As to `Cc1cc2c(cc1C)C1OC2c2ccc(C(=O)NCc3ccc(C(=N)N)cc3)cc21` (racemic) [Example 317, (±)-N-[(4-carbamimidoylphenyl)methyl]-11,12-dimethyl-15-oxatetracyclo[6.6.1.0^2,^7.0^9,1^4]-pentadeca-2,4,6,9(14),10,12-hexaene-4-carboxamide], the IC50 is 28.8 nM.

On to `Cc1cc(N)nc(C)c1CNC(=O)c1ccc2c(c1)C1OC2c2cc3c(cc21)C(=O)N(C)C3=O` (racemic) [Example 318, (±)-N-[(6-amino-2,4-dimethyl-pyridin-3-yl)methyl]-6-methyl-5,7-dioxo-18-oxa-6-azapentacyclo [9.6.1.0^2,1^0.0^4,^8.0^12,1^4]octadeca-2(10),3,8,12,14,16-hexaene-14-carboxamide], for which the IC50 was 17.4 nM.

`COC(=O)c1cc2c(cc1C(=O)OC)C1OC2c2ccc(C(=O)NCc3c(C)cc(N)nc3C)cc21` (racemic) [Example 319, (±)-4,5-dimethyl 11-{[(6-amino-2,4-dimethyl-pyridin-3-yl)methyl]carbamoyl}-15-oxatetracyclo[6.6.1.0^2,^7.0^9,1^4] pentadeca-2(7),3,5,9,11,13-hexaene-4,5-dicarboxylate]: the IC50 was 2450 nM.

On to `Cc1cc(N)nc(C)c1CNC(=O)c1ccc2c(c1)C1OC2c2cc3c(O)nnc(O)c3cc21` (racemic) [Example 320, (±)-N-[(6-amino-2,4-dimethyl-pyridin-3-yl)methyl]-5,8-dihydroxy-19-oxa-6,7-diazapentacyclo [10.6.1.0^2,^11.0^4,^9.0^13,1^8] nonadeca-2(11),3,5,7,9,13,15,17-octaene-15-carboxamide], for which the IC50 is 10200 nM.

Turning to `CCc1cc2c(cc1-c1ccc(F)cc1F)C1OC2c2ccc(C(=O)NCc3c(C)cc(N)nc3C)cc21` (racemic) [Example 321, (±)-N-[(6-amino-2,4-dimethyl-pyridin-3-yl)methyl]-12-(2,4-difluorophenyl)-11-ethyl-15-oxatetracyclo[6.6.1.0^2,^7.0^9,1^4] pentadeca-2,4,6,9(14),10,12-hexaene-4-carboxamide and (±)-N-[(6-amino-2,4-dimethylpyridin-3-yl)methyl]-11-(2,4-difluorophenyl)-12-ethyl-15-oxatetracyclo [6.6.1.0^2,^7.0^9,1^4]pentadeca-2,4,6,9(14),10,12-hexaene-4-carboxamide], the “KLKB1 pIC50” value was found to be 8.09.

As for `Cc1cc(N)nc(C)c1CNC(=O)c1ccc2c(c1)C1OC2c2cc(C#N)c(C#N)cc21` (racemic) [Example 326, (±)-N-((6-amino-2,4-dimethylpyridin-3-yl)methyl]-11,12-dicyano-15-oxatetracyclo-[6.6.1.0^2,^7.0^9,1^4]pentadeca-2,4,6,9,11,13-hexaene-4-carboxamide], the IC50 is 851 nM.

With `Cc1cc(N)nc(C)c1CNC(=O)c1ccc2c(c1)C1OC2(C)c2ccc(-c3ccc(F)cc3)cc21` (racemic) [Example 334, (±)-N-[(6-amino-2,4-dimethyl-pyridin-3-yl)methyl]-12-(4-fluorophenyl)-8-methyl-15-oxatetracyclo[6.6.1.0^2,^7.0^9,1^4] pentadeca-2,4,6,9,11,13-hexaene-4-carboxamide (±)-N-[(6-amino-2,4-dimethylpyridin-3-yl)methyl]-11-(4-fluorophenyl)-8-methyl-15-oxatetracyclo[6.6.1.0^2,^7.0^9,1^4] pentadeca-2,4,6,9,11,13-hexaene-4-carboxamide], the “KLKB1 pIC50” value is reported as 5.6.

For the molecule `COc1cc2c(cc1OC)C1OC2c2ccc(C(=O)NCc3c(C)cc(N)nc3C)cc21` (racemic) [Example 335, (±)-N-[(6-amino-2,4-dimethylpyridin-3-yl)methyl]-11,12-dimethoxy-15-oxatetracyclo[6.6.1.0^2,^7.0^9,1^4] pentadeca-2,4,6,9(14),10,12-hexaene-4-carboxamide], the IC50 was 1620 nM.

As to `Cc1cc(N)nc(C)c1CNC(=O)c1ccc2c(c1)C1OC2c2c(C)cc(-c3ccc(F)cc3)cc21` (racemic) [Example 340, (±)-N-[(6-amino-2,4-dimethyl-pyridin-3-yl)methyl]-12-(4-fluorophenyl)-10-methyl-15-oxatetracyclo[6.6.1.0^2,^7.0^9,1^4] pentadeca-2,4,6,9(14),10,12-hexaene-4-carboxamide and (±)-N-[(6-amino-2,4-dimethylpyridin-3-yl)methyl]-11-(4-fluorophenyl)-13-methyl-15-oxatetracyclo [6.6.1.0^2,^7.0^9,1^4]pentadeca-2,4,6,9(14),10,12-hexaene-4-carboxamide], the “KLKB1 pIC50” value amounted to 6.64.

Regarding `Cc1cc(N)nc(C)c1CNC(=O)c1ccc2c(c1)C1OC2c2cc3c(cc21)OCCO3` (racemic) [Example 342, (±)-N-[(6-amino-2,4-dimethylpyridin-3-yl)methyl]-5,8,19-trioxapentacyclo-[10.6.1.0^2,11.0^4,^9.0^13,1^8]nonadeca-2,4(9),10,13,15,17-hexaene-15-carboxamide], the IC50 was 550 nM.

With `CC12OC(C)(c3cc(C(=O)NCc4ccc(C(=N)N)cc4)ccc31)c1cc(-c3ccc(F)cc3)ccc12` (racemic) [Example 344, N-[(4-carbamimidoylphenyl)methyl]-12-(4-fluorophenyl)-1,8-dimethyl-15-oxatetracyclo [6.6.1.0^2,^7.0^9,1^4]pentadeca-2,4,6,9,11,13-hexaene-4-carboxamide], the IC50 is 427 nM.

Consider `Cc1cc(-c2ccc(F)cc2)cc2c1C1OC2c2cc(C(=O)NCc3ccc(C(=N)N)cc3)cc(F)c21` (racemic) [Example 396, (±)-N-[(4-carbamimidoylphenyl)methyl]-6-fluoro-12-(4-fluorophenyl)-10-methyl-15-oxatetracyclo[6.6.1.0^2,^7.0^9,1^4] pentadeca-2(7),3,5,9(14),10,12-hexaene-4-carboxamide], for which the IC50 was 5.01 nM.

Turning to `Cc1cc(N)nc(C)c1CNC(=O)c1cc(F)c2c(c1)C1OC2c2c(C)cc(-c3ccc(F)cc3)cc21` (racemic) [Example 397, (±)-N-(6-amino-2,4-dimethylpyridin-3-yl) methyl]-6-fluoro-12-(4-fluorophenyl)-10-methyl-15-oxatetracyclo[6.6.1.0^2,^7.0^9,1^4] pentadeca-2(7),3,5,9(14),10,12-hexaene-4-carboxamide], the IC50 was 20 nM.

Take `Cc1cc(N)nc(C)c1CNC(=O)c1cc(F)c2c(c1)C1OC2c2cc(-c3ccc(F)cc3)cc(C)c21` (racemic) [Example 398, N-[(6-amino-2,4-dimethyl-pyridin-3-yl)methyl]-6-fluoro-11-(4-fluorophenyl)-13-methyl-15-oxatetracyclo[6.6.1.0^2,^7.0^9,1^4] pentadeca-2,4,6,9(14),10,12-hexaene-4-carboxamide]: the IC50 is 398 nM.

As for `Cc1cc(N)nc(C)c1CNC(=O)c1ccc2c(c1)[C@@H]1O[C@H]2c2cc(-c3ccccc3F)ccc21` (single isomer, unassigned) [Example 130], the IC50 is 195 nM.
